Laboratory results published in patent publication US7671061B2, “Methods and compositions for treating pain” (Hydra Biosciences, Inc., priority 2005, dated 2010).

Molecular target: T1, hTRPA1 (Homo sapiens, UniProt O75762, K186N)
T1 construct: expressed in transfected cells; host or cells: HEK293/TREx (Invitrogen), induced with tetracycline
Assay: High throughput Ca2+ fluorescence (Fluo4) assay, AITC stimulation
Assay type: cell-based
Conditions: Table 1; read-out: hTRPA1 Fluo4 IC50
Text: The assay depended on detection of the rise in intracellular Ca^2+ concentration ([Ca^2+]i) following channel activation in cells inducibly expressing the TRPA1 channel. Ca^2+ rise was quantified with the use of fluorescent Ca^2+ indicators that were loaded into cells and thereafter indicated the [Ca^2+]i. Ca^2+ influx followed activation of the TRPA1 channel. Compounds inhibiting the [Ca^2+]i rise were considered hits for further investigation.
These cells were maintained in the growth medium recommended by the manufacturer supplemented with 100 μg/ml hygromycin to promote retention of the TRPA1 construct. After growing to near confluency, cells were plated at a density of ˜25,000 cells/well in 384 well CellBind plates (Corning) in the presence of 1 μg/ml tetracycline, and allowed to grow for 20-30 hrs. A nearly confluent monolayer resulted. Cells were then loaded with Ca^2+ dye: Fura-2/AM or Fluo4/AM was added to the wells to a final concentration of 2 μM or 1 μM, respectively, and incubated for 80 min or 60 min, respectively, at room temperature. […] Frames were acquired at a rate of 0.2 Hz. During the assay, the plates were continuously […], with pipette mixing of wells following addition of each reagent. For the screening assay, 13 μl of a diluted stock (at 50 μM) was added to each well for 2 minutes following the collection of a short (4 frame) baseline. […] Data was collected for ˜3 minutes following addition of AITC, where the fluorescent intensity (for Fluo4) and the F340/F380 ratio (for Fura-2) were proportional to the [Ca^2+]i. Negative controls consisted of HEK293/TREx TRPA1 cells exposed to AITC, but no compound. […] These controls defined a screening window, and “hits” were defined as those compounds inhibiting the fluorescence response by at least 40%. IC50 values were determined for compounds defined as “hits.” The Fluo4 cell-based fluorescence assay was used to determine the intracellular Ca^2+ concentration in the presence of varying drug concentration. […] Compounds were tested in triplicate at all concentrations. Standard software was used to fit IC50 curves.

T1 sequence (O75762 whole entry K186N): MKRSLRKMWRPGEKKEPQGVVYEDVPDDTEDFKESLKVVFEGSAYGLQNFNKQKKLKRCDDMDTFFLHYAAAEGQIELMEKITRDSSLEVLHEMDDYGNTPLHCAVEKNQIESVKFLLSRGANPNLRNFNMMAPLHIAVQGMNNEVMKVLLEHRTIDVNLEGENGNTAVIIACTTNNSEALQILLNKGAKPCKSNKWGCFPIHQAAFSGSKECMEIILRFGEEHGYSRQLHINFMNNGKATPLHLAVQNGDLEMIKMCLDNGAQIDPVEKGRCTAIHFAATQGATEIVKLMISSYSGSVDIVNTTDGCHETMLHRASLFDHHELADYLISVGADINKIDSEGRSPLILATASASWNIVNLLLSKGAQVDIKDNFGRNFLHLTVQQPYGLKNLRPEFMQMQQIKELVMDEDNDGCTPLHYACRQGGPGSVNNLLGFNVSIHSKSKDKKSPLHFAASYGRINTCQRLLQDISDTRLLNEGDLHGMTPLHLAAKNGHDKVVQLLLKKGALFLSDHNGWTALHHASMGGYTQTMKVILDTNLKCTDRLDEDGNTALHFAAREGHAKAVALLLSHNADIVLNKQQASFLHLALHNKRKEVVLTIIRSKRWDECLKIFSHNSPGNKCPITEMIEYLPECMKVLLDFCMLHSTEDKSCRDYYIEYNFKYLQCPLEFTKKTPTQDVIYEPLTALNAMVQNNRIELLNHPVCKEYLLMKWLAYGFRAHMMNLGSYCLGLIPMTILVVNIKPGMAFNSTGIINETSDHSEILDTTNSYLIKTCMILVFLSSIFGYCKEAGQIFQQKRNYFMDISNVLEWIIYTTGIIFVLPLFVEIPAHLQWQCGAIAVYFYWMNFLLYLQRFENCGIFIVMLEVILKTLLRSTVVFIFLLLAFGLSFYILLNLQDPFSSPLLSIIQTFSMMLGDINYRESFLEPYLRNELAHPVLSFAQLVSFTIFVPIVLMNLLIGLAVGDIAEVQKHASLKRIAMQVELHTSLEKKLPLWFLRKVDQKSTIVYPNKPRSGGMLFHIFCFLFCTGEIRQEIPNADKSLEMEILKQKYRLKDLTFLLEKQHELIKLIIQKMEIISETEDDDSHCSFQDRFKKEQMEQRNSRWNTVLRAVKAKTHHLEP

Structure (SMILES)	IC50 [µM]
CC1=C(C(=O)N2CCOCC2)C(c2ccc(F)cc2)NC(=O)N1 (stereo not shown)	> 10
CC1=C(C(=O)N2CCOCC2)C(c2cccc(Br)c2)NC(=O)N1 (stereo not shown)	> 10
CCOC(=O)C1=C(c2ccccc2)N(C)C(=O)NC1c1ccccc1F (stereo not shown)	> 10
CCOC(=O)C1=C(c2ccccc2)NC(=O)NC1c1ccccc1Cl (stereo not shown)	> 10
CC1=C(C(=O)OC(C)C)C(c2ccccc2Cl)NC(=S)N1 (stereo not shown)	≤ 10
CC1=C(C(=O)OCC(C)C)C(c2ccccc2C(F)(F)F)NC(=O)N1 (stereo not shown)	≤ 5
CC1=C(C(=O)OC2CCC(C)CC2)C(c2ccc(N(C)C)cc2)NC(=O)N1 (stereo not shown)	> 10
C=CCOC(=O)C1=C(C)NC(=S)NC1c1ccccc1OCC (stereo not shown)	> 10
CC1=C(C(=O)Nc2ccc(Br)cc2)C(c2ccccc2)NC(=O)N1C (stereo not shown)	> 10
CC1=C(C(=O)OCCC(C)C)C(c2ccc(Cl)c(Cl)c2)NC(=O)N1 (stereo not shown)	> 10
CC1=C(C(=O)OCCc2ccccc2)C(c2ccccc2)NC(=O)N1 (stereo not shown)	> 10
CCOC(=O)C1=C(C)N(C)C(=S)NC1c1ccccc1 (stereo not shown)	> 10
CCOC(=O)C1=C(c2ccc(N(C)C)cc2)NC(=O)NC1c1ccccc1 (stereo not shown)	≤ 1
COc1ccc(C2NC(=O)N(C)C(C)=C2C(=O)Nc2ccccc2C)cc1 (stereo not shown)	> 10
CC1=C(C(=O)OCc2ccccc2)C(c2ccccc2F)NC(=O)N1 (stereo not shown)	> 10
CCCOC(=O)C1=C(C)NC(=O)NC1c1ccc(N(CC)CC)cc1 (stereo not shown)	> 10
CC1=C(C(=O)OCc2ccc(C)cc2)C(c2ccc(F)cc2)NC(=O)N1 (stereo not shown)	> 10
CC1=C(C(=O)OC(C)C)C(c2cccc(Cl)c2)NC(=O)N1 (stereo not shown)	> 10
CC1=C(C(=O)OCCc2ccccc2)C(c2ccc(Cl)cc2)NC(=O)N1 (stereo not shown)	≤ 5
CC1=C(C(=O)OC2CCCCC2)C(c2ccc(F)cc2)NC(=O)N1 (stereo not shown)	> 10
C=CCOC(=O)C1=C(C)NC(=O)NC1c1ccc(F)cc1 (stereo not shown)	> 10
CC1=C(C(=O)OC(C)C)C(c2cccc(Br)c2)NC(=O)N1 (stereo not shown)	> 10
CC1=C(C(=O)OC(C)C)C(c2ccc(Cl)cc2)NC(=O)N1 (stereo not shown)	> 10

Structure (SMILES)	IC50 [µM]
CCCCCOC(=O)C1=C(C)NC(=O)NC1c1cccc(Br)c1 (stereo not shown)	> 10
CCC(C)OC(=O)C1=C(C)NC(=O)NC1c1ccccc1Cl (stereo not shown)	> 10
C=CCOC(=O)C1=C(C)NC(=O)NC1c1ccc(N(CC)CC)cc1 (stereo not shown)	> 10
C=CCOC(=O)C1=C(C)NC(=O)NC1c1ccc(C)cc1 (stereo not shown)	≤ 5
CC1=C(C(=O)OCC(F)(F)F)C(c2ccc(N(C)C)cc2)NC(=O)N1 (stereo not shown)	> 10
CCCOC(=O)C1=C(C)NC(=O)NC1c1cccc2ccccc12 (stereo not shown)	> 10
CCCCCOC(=O)C1=C(C)NC(=S)NC1c1ccccc1 (stereo not shown)	> 10
C=CCOC(=O)C1=C(C)NC(=O)NC1c1ccc(CC)cc1 (stereo not shown)	> 10
CC1=C(C(=O)OCC2CCCCC2)C(c2ccccc2F)NC(=O)N1 (stereo not shown)	> 10
CCCCOC(=O)C1=C(C)NC(=O)NC1c1ccc(C)cc1 (stereo not shown)	> 10
CC1=C(C(=O)OCCc2ccccc2)C(c2ccc(F)cc2)NC(=O)N1 (stereo not shown)	> 10
CC1=C(C(=O)OCC(Cl)(Cl)Cl)C(c2ccccc2)NC(=O)N1 (stereo not shown)	> 10
CC1=C(C(=O)OCc2ccc(C)cc2)C(c2ccccc2)NC(=O)N1 (stereo not shown)	> 10
CCCOC(=O)C1=C(C)NC(=O)NC1c1cccc(Cl)c1 (stereo not shown)	> 10
CC1=C(C(=O)OCC(F)(F)F)C(c2ccc(Br)cc2)NC(=O)N1 (stereo not shown)	> 10
CCc1ccc(C2NC(=O)NC(C)=C2C(=O)OC2CCCC2)cc1 (stereo not shown)	> 10
CC1=C(C(=O)OCc2ccccc2)C(c2ccc(F)cc2)NC(=O)N1 (stereo not shown)	> 10
CC1=C(C(=O)OCc2ccc(C)cc2)C(c2ccccc2F)NC(=O)N1 (stereo not shown)	> 10
COC(C)OC(=O)C1=C(C)NC(=O)NC1c1cccc(Cl)c1Cl (stereo not shown)	> 10
CC1=C(C(=O)OC2CCCCCC2)C(c2cccc(Cl)c2)NC(=O)N1 (stereo not shown)	> 10
CC1=C(C(=O)OCc2ccccc2)C(c2cccc(Cl)c2)NC(=O)N1 (stereo not shown)	> 10
CC1=C(C(=O)OC(C)C(C)C)C(c2ccc(C)cc2)NC(=O)N1 (stereo not shown)	> 10
CC1=C(C(=O)OCc2ccc(C)cc2)C(c2ccc(N(C)C)cc2)NC(=O)N1 (stereo not shown)	> 10
